Assay results from patent publication US8163907B2, “Dihydropyridine calcium antagonist compounds, preparation methods, and medical uses thereof” (Cosunter Pharmaceutical Company, priority 2008, dated 2012).
Structures can show the parent of a compound that is named as a salt.

Test system: isolated rat's thoracic aorta ring
Assay: Contraction of an isolated rat's thoracic aorta ring caused by KCl (vascular relaxation)
Type: cell-based
Settings: 80 mmol/L KCl, n=6; for IC50: isolated rat thoracic aorta ring with complete endodermis, read-out: IC50, inhibition of contraction of a vascular ring with complete endodermis caused by KCl
Description: The effect of compounds of the present invention to the contraction of an isolated rat's thoracic aorta ring caused by KCl is described as follows:
The present invention synthesizes 21 new DHP compounds, and some of the compounds are selected for performing pharmacological tests. With reference to Comparison of vasodilatation effect between quercetin and rutin in the isolated rat thoracic aorta authored by ZHOU Xin-mei, YAO Hui, XIA Man-li, et al, and published in Journal of Zhejiang University: Medical Sciences, 2006, 35(1), 29-33 for an embodiment.
A male SD rat, 240-260 g, supplied by Institute of Laboratory Animal Breeding and Reproduction, Qing Long Shan of Jiang Ning. Certificate of Quality No.: SCXK (So) 2002-0018.
NaCl:118.3 mmol/L, KCl:4.7 mmol/L, CaCl2: 2.5 mmol/L, MgSO4.7H2O:1.2 mmol/L, KH2PO4:1.2 mmol/L, NaHCO3:25 mmol/L, and glucose:11.1 mmol/L.
Hit a male rat at its head until it faints. Quickly remove the thoracic aorta, and put it into a K-H solution passed with a mixed gas having 95% O2+5% CO2. Carefully remove connective tissues around the thoracic aorta and cut the blood vessel into a vascular ring of 3 mm wide. Avoid any excessive pulling to prevent damages to the endodermis. Hang the vascular ring into a bathing trough containing 30 ml of K-H liquid, and keep passing the mixed gas of 95% O2+5% CO2, and maintain the temperature at 37±0.5[…]. Adjust the rest tension to 2.0 g. Keep it in equilibrium for 2 hrs, and change the liquid once every 15 min.
Inspection of the activity of the endodermis of the blood vessel: After the thoracic aorta ring is stable, change the liquid once, and add 1 μmol/L of NA into the bathing trough. After the contraction has reached the peak value for 15 min., add 1 μmol/L of Ach. If the expected contraction of the vascular relaxation is greater than 60% after Ach is added, then the endodermis is considered to be complete, or else the endodermis will be damaged.
A thoracic aorta ring with a complete endodermis is selected for conducting the experiment. After the changed liquid is stable, Add 80 mmol/L KCl to induce the maximum contraction amplitude, sequentially accumulate the medications, such that the medicine concentrations are 0.05 μmol/L, 0.1 μmol/L, 0.5 μmol/L, 1 μmol/L, 2 μmol/L, 4 μmol/L, and 10 μmol/L respectively. Record the change of tensions. The vascular relaxation level is indicated by the inhibition rate. In other words, KCl induces a difference of values between the maximum tension of the contraction and the vascular tension after medicines with different concentrations are added. The ratio of differences of the values to the maximum contraction amplitude induced by KCl reflects the level of vascular relaxation. The sample size of the arota rings for each medicine group is 6. In other words, the experiment is performed repeatedly for 6 times.

[1] = Rattus norvegicus, 0.1 μmol/L, x±S, read-out: Inhibition Rate (%)
[2] = Rattus norvegicus, 0.5 μmol/L, x±S, read-out: Inhibition Rate (%)
[3] = Rattus norvegicus, 1 μmol/L, x±S, read-out: Inhibition Rate (%)
[4] = Rattus norvegicus, 2 μmol/L, x±S, read-out: Inhibition Rate (%)
[5] = Rattus norvegicus, 4 μmol/L, x±S, read-out: Inhibition Rate (%)

Compound	IC50	inhibition at 0.1 µM [1]	inhibition at 0.5 µM [2]	inhibition at 1 µM [3]	inhibition at 2 µM [4]	inhibition at 4 µM [5]	inhibition at 10 µM (Rattus norvegicus, 10 μmol/L, x±S, read-out: Inhibition Rate (%))	Inhibition Rate (%) (0.1 μmol/L, x±S)	Inhibition Rate (%) (0.5 μmol/L, x±S)	Inhibition Rate (%) (1 μmol/L, x±S)	Inhibition Rate (%) (2 μmol/L, x±S)	Inhibition Rate (%) (4 μmol/L, x±S)	Inhibition Rate (%) (10 μmol/L, x±S)	inhibition at 0.05 µM (Rattus norvegicus, 0.05 μmol/L, x±S, read-out: Inhibition Rate (%))
COC(=O)C1=C(C)NC(C)=C(C(=O)OCCCN2CCN(CCOc3ccccc3OC)CC2)C1c1cccc([N+](=O)[O-])c1 (stereo not drawn) [Compound I4, 1,4-dihydro-2,6-dimethyl-4-(3-nitrophenyl)-3,5-pyridinecarboxylic acid methyl ester 3-(N-4-(2-(2-methoxyphenoxy)ethyl)piperazinyl)propyl ester hydrochloride]	2000 nM	13.2 ± 1.3%	20.5 ± 2.2%	33.8 ± 2.8%	59.4 ± 4%	62.4 ± 4.8%	72 ± 4.7%	–	–	–	–	–	–	–
COC(=O)C1=C(C)NC(C)=C(C(=O)OCCCCN2CCN(CCOc3ccccc3OC)CC2)C1c1cccc([N+](=O)[O-])c1.Cl (stereo not drawn) [Compound I5, 1,4-dihydro-2,6-dimethyl-4-(3-nitrophenyl)-3,5-pyridinecarboxylic acid methyl ester-4-(N-4-(2-(2-methoxyphenoxy)ethyl)piperazinyl)butyl ester hydrochloride]	500 nM	–	–	–	–	–	–	24.5 ± 3.2%	47.9 ± 3.9%	66.0 ± 4.0%	75.0 ± 3.5%	91.6 ± 3.2%	100.1 ± 3.0%	–
COC(=O)C1=C(C)NC(C)=C(C(=O)OCCN2CCN(CCOC(c3ccccc3)c3ccccc3)CC2)C1c1cccc([N+](=O)[O-])c1.Cl (stereo not drawn) [Compound I6, 1,4-dihydro-2,6-dimethyl-4-(3-nitrophenyl)-3,5-pyridinecarboxylic acid methyl ester2-(N-4-(diphenylmethoxyethyl)piperazinyl)ethyl ester hydrochloride]	1900 nM	–	–	–	–	–	–	9.3 ± 1.0%	20.5 ± 2.5%	33.7 ± 2.4%	49.7 ± 3.5%	66.9 ± 3.6%	79.0 ± 4.5%	–
COC(=O)C1=C(C)NC(C)=C(C(=O)OCCN2CCN(CCOc3ccccc3OC)CC2)C1c1cccc([N+](=O)[O-])c1 (stereo not drawn) [Compound I14, 1,4-dihydro-2,6-dimethyl-4-(3-nitrophenyl)-3,5-pyridinecarboxylic acid methyl ester2-(N-4-(2-(2-methoxyphenoxy)ethyl)piperazinyl)ethyl ester hydrochloride]	200 nM	35.7 ± 3%	62.9 ± 6.8%	81.7 ± 3.3%	96.2 ± 4.5%	101 ± 3.4%	–	–	–	–	–	–	–	27.4 ± 3.4%
COC(=O)C1=C(C)NC(C)=C(C(=O)OCCCN2CCN(CC(O)COc3ccccc3OC)CC2)C1c1cccc([N+](=O)[O-])c1.Cl (stereo not drawn) [II2, 1,4-dihydro-2,6-dimethyl-4-(3-nitrophenyl)-3,5-pyridinecarboxylic acid methyl ester3-(N-4-(3-(2-methoxyphenoxy)-2-hydroxpropyl)piperazinyl)propyl ester hydrochloride]	800 nM	–	–	–	–	–	–	11.0 ± 1.5%	32.2 ± 3.0%	50.7 ± 5.7%	65.2 ± 4.2%	93.4 ± 3.1%	101.2 ± 3.2%	–
Levamlodipine Besylate [reference compound]	4100 nM	–	–	–	–	–	–	4.5 ± 0.6%	18.4 ± 2.6%	37.7 ± 3.6%	46.8 ± 4.1%	69.0 ± 5.9%	84.6 ± 6.1%	–
